In patent publication US9408856B2, “Topical steroidal formulations” (Temple University—Of The Commonwealth System of Higher …, priority 2008, dated 2016):

Key:
[1] = system: dexamethasone-induced thymic and splenic atrophy; assay: Dexamethasone-induced thymic and splenic atrophy in mice; format: in vivo, CD-1 mice; design: Thymus wt / Spleen wt: unit not given here; conditions: for Approximate Potency Compared to Fluasterone in Protecting Against DEX-induced Thymic and Splenic Involution: fluasterone = 1
Protocol: Administration of dehydroepiandrosterone (DHEA, 60 mg/kg, s.c.) for three days partially reverse thymic and splenic atrophy induced by a single injection of dexamethasone (1.6 mg/mouse). In this experiment, the efficacy of either 10 mg/kg or 20 mg/kg DHEA administered s.c. versus the effect of 10 mg/kg or 20 mg/kg fluasterone was investigated.
5% Cremophor (polyethoxylated castor oil; Sigma Chemicals)-95% saline vehicle was prepared using 95 mL of sterile 0.9% NaCl (filtered through sterile 0.22 micron filter) and 5 mL of Cremophor. The Cremophor was dissolved by swirling for approximately 5 minutes.
Dexamethasone solutions were prepared by dissolving dexamethasone (Sigma Chemicals) in absolute ethanol. For example, 71.9 mg of dexamethasone was dissolved in 2.9 mL of absolute ethanol. In order to prevent precipitation, the solution was kept on a hotplate between injections.
For the 10 mg/kg suspension, 25.7 mg of DHEA was weighed out, transferred to a glass scintillation vial, and 10.3 mL of the Cremophor-saline vehicle was added. The DHEA suspension was homogenized using a Tissumizer at 80% power for 30 sec. The Tissumizer was rinsed with 70% ethanol prior to homogenization. After the 10 mg/kg DHEA suspension was homogenized the probe was rinsed 2× with 50 mL of absolute ethanol, then with 50 mL of 70% ethanol, and then dried with sterile gauze. For the 20 mg/kg DHEA suspension, 50.9 mg DHEA was suspended in 10.2 mL of Cremophor-saline vehicle.
19.4 mg of fluasterone was weighed out and transferred to a glass scintillation vial. 7.8 mL of Cremophor-saline vehicle was added to the vial and the contents of the vial were homogenized with a Tissumizer as described previously. Prior to preparing the 20 mg/kg fluasterone, the probe was rinsed 2× with 50 mL of absolute ethanol and 1× with 50 mL of 70% ethanol. For the 20 mg/kg suspension, 47.0 mg was weighed out and transferred to a glass scintillation vial. 9.4 mL of Cremophor-saline vehicle was added to the vial and the contents of the vial were homogenized with a Tissumizer as described above.
Female CD-1 mice, 43-45 days old, were obtained from Charles River Laboratories. The mice were housed 5 per cage in plastic shoebox cages with ad libitum access to Purina chow 5015 and water in the Pharmacy CAF with 12 hr of alternating light and darkness.
Prior to the experiment the mice were weighed, separated into 6 groups containing 5 mice each and treated as follows:
Mice were treated s.c. with 0.1 mL of 5% Cremophor-95% saline for three days. On the third day, the mice were also treated s.c. with 1.6 mg of dexamethasone dissolved in 0.06 mL of absolute. ethanol.
Mice were treated s.c. with 0.25 mg of DHEA suspended in 0.1 mL of 5% Cremophor-95% saline for three days. On the third day, the mice were also treated s.c. with 1.6 mg of dexamethasone dissolved in 0.06 mL of absolute ethanol.
Mice were treated s.c. with 0.5 mg of DHEA suspended in 0.1 mL of 5% Cremophor-95% saline for three days. On the third day, the mice were also treated s.c. with 1.6 mg of dexamethasone dissolved in 0.06 mL of absolute ethanol.
Mice were treated s.c. with 0.25 mg of fluasterone suspended in 0.1 mL of 5% Cremophor-95% saline for three days. On the third day, the mice were also treated s.c. with 1.6 mg of dexamethasone dissolved in 0.06 mL of absolute ethanol.
Mice were treated s.c. with 0.5 mg of fluasterone suspended in 0.1 mL of 5% Cremophor-95% saline for three days. On the third day, the mice were also treated s.c. with 1.6 mg of dexamethasone dissolved in 0.06 mL of absolute ethanol.
All s.c. injections were made in the nape. All mice were lightly anesthetized while the s.c. injections were done.
Twenty-four hours after dexamethasone treatment, the mice were euthanized by an overdose of isoflurane. The spleen and thymus were removed, cleaned of any adventitia, rinsed, blotted on filter paper, and weighed. […]

[2] = Fate of orally administered 14C-fluasterone
[3] = target: glucose 6-phosphate dehydrogenase (G6PDH) (Homo sapiens, UniProt P11413); conditions: Schwartz et al., Cancer Res. 48:4817-4822, 1988; cited from earlier work
Sequence of glucose 6-phosphate dehydrogenase (G6PDH) (P11413 whole entry): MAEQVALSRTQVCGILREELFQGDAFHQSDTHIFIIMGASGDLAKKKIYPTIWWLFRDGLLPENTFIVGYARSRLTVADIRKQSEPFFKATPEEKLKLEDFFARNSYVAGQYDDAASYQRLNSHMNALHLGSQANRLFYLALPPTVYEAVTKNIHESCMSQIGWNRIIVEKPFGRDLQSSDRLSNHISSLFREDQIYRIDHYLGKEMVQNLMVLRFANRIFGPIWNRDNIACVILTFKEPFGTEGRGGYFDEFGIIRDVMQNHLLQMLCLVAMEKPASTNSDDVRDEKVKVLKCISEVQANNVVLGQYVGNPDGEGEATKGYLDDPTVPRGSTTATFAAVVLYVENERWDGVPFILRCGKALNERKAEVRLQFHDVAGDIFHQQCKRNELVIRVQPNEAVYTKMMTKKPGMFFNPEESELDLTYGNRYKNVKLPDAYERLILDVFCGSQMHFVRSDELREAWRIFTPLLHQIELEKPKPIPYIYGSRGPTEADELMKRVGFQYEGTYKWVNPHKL

[4] = Table 15, steroid 10 mg/kg in Cremophor-saline + dexamethasone
[5] = Table 15, steroid 20 mg/kg in Cremophor-saline + dexamethasone
[6] = Table 16, steroid 5 mg/kg + dexamethasone
[7] = Table 16, steroid 10 mg/kg + dexamethasone
[8] = Table 16, steroid 20 mg/kg + dexamethasone
[9] = Table 16, steroid 60 mg/kg + dexamethasone
[10] = Table 16, steroid 40 mg/kg + dexamethasone

C[C@H]1CC[C@@]2(C)C(=CC[C@@H]3[C@@H]2CC[C@]2(C)C(=O)CC[C@@H]32)C1 [3β-methyl-5-androsten-17-one]
Spleen wt [1, 4]: 70.7 + 4.5 | Spleen wt/BW [1, 4]: 2.9 + 0.2 | Thymus wt [1, 4]: 61.9 + 3.9 | Thymus wt/BW [1, 4]: 2.6 + 0.2 | Spleen wt [1, 5]: 67.0 ± 11.3 | Spleen wt/BW [1, 5]: 2.6 ± 0.2 | Thymus wt [1, 5]: 62.2 ± 4.1 | Thymus wt/BW [1, 5]: 2.4 ± 0.2 | Approximate Potency Compared to Fluasterone in Protecting Against DEX-induced Thymic and Splenic Involution ([1]; mice): slightly less active | rank of activity among steroids tested against DEX-induced thymic and splenic involution ([1]; mice): almost as great potency

C[C@H]1CC[C@@]2(C)C(=CC[C@@H]3[C@@H]2CC[C@]2(C)C(=O)[C@H](Cl)C[C@@H]32)C1 [3β-methyl-16α-chloro-5-androsten-17-one]
Spleen wt [1, 4]: 42.3 ± 5.6 | Spleen wt/BW [1, 4]: 1.6 ± 0.2 | Thymus wt [1, 4]: 31.7 ± 4.1 | Thymus wt/BW [1, 4]: 1.2 ± 0.1 | Spleen wt [1, 5]: 38.6 ± 6.3 | Spleen wt/BW [1, 5]: 1.2 ± 0.3 | Thymus wt [1, 5]: 28.6 ± 3.2 | Thymus wt/BW [1, 5]: 1.1 ± 0.1 | Approximate Potency Compared to Fluasterone in Protecting Against DEX-induced Thymic and Splenic Involution ([1]; mice): about ⅙ or considerably

C[C@H]1CC[C@@]2(C)C(=CC[C@@H]3[C@@H]2CC[C@]2(C)C(=O)[C@H](F)C[C@@H]32)C1 [3β-methyl-16α-fluoro-5-androsten-17-one]
Spleen wt [1, 4]: 50.9 ± 7.5 | Spleen wt/BW [1, 4]: 2.0 ± 0.3 | Thymus wt [1, 4]: 43.8 ± 3.0 | Thymus wt/BW [1, 4]: 1.7 ± 0.1 | Spleen wt [1, 5]: 55.0 ± 4.6 | Spleen wt/BW [1, 5]: 2.2 ± 0.1 | Thymus wt [1, 5]: 55.8 ± 5.4 | Thymus wt/BW [1, 5]: 2.2 ± 0.2 | Approximate Potency Compared to Fluasterone in Protecting Against DEX-induced Thymic and Splenic Involution ([1]; mice): <½

C[C@H]1CC[C@@]2(C)C(=CC[C@@H]3[C@@H]2CC[C@]2(C)C(=O)[C@H](C)C[C@@H]32)C1 [3β-methyl-16α-methyl-5-androsten-17-one]
recovery from anesthesia (two mice of the group) ([1]; 20 mg/kg group, Example 9): never recovered from anesthesia | Spleen wt [1, 4]: 44.9 + 9.2 | Spleen wt/BW [1, 4]: 1.7 + 0.3 | Thymus wt [1, 4]: 42.6 + 4.7 | Thymus wt/BW [1, 4]: 1.7 + 0.2 | Spleen wt [1, 5]: 44.4 ± 8.7 | Spleen wt/BW [1, 5]: 1.8 ± 0.3 | Thymus wt [1, 5]: 37.7 ± 4.0 | Thymus wt/BW [1, 5]: 1.5 ± 0.2 | Approximate Potency Compared to Fluasterone in Protecting Against DEX-induced Thymic and Splenic Involution ([1]; mice): about ⅙

C[C@]12CCCCC1=C[C@@H](O)[C@@H]1[C@@H]2CC[C@]2(C)C(=O)[C@H](F)C[C@@H]12 [7α-hydroxyfluasterone, 7α-hydroxy-16α-fluoro-5-androsten-17-one]
Body Weight [1, 6]: 24.5 ± 1.0 | Spleen wt [1, 6]: 46.3 ± 11.1 | Spleen wt/BW [1, 6]: 1.8 ± 0.5 | Thymus wt [1, 6]: 43.8 ± 6.9 | Thymus wt/BW [1, 6]: 1.8 ± 0.3 | Body Weight [1, 7]: 24.0 ± 1.3 | Spleen wt [1, 7]: 50.9 ± 12.5 | Spleen wt/BW [1, 7]: 2.1 ± 0.5 | Thymus wt [1, 7]: 54.8 ± 12.1 | Thymus wt/BW [1, 7]: 2.3 ± 0.4 | Approximate Potency Compared to Fluasterone in Protecting Against DEX-induced Thymic and Splenic Involution ([1]; mice): about ½

C[C@]12CC[C@H]3[C@@H](CC=C4CCCC[C@@]43C)[C@@H]1C[C@@H](F)[C@@H]2O [16α-fluoro-5-androsten-17β-ol]
Body Weight [1, 8]: 25.1 ± 1.0 | Spleen wt [1, 8]: 52.3 ± 10.8 | Spleen wt/BW [1, 8]: 2.1 ± 0.4 | Thymus wt [1, 8]: 42.3 ± 4.6 | Thymus wt/BW [1, 8]: 1.7 ± 0.2 | Body Weight [1, 9]: 25.7 ± 1.5 | Spleen wt [1, 9]: 45.9 ± 5.1 | Spleen wt/BW [1, 9]: 1.8 ± 0.2 | Thymus wt [1, 9]: 45.1 ± 5.1 | Thymus wt/BW [1, 9]: 1.8 ± 0.2 | Approximate Potency Compared to Fluasterone in Protecting Against DEX-induced Thymic and Splenic Involution ([1]; mice): < 1/12

C[C@]12CCCCC1=CC[C@@H]1[C@@H]2CC[C@]2(C)C(=O)[C@H](O)C[C@@H]12 [16α-hydroxy-5-androsten-17-one]
Body Weight [1, 8]: 25.4 ± 1.5 | Spleen wt [1, 8]: 46.6 ± 7.5 | Spleen wt/BW [1, 8]: 1.8 ± 0.2 | Thymus wt [1, 8]: 41.2 ± 1.3 | Thymus wt/BW [1, 8]: 1.6 ± 0.1 | Body Weight [1, 9]: 23.8 ± 0.8 | Spleen wt [1, 9]: 53.6 ± 6.3 | Spleen wt/BW [1, 9]: 2.2 ± 0.3 | Thymus wt [1, 9]: 45.9 ± 3.1 | Thymus wt/BW [1, 9]: 1.9 ± 0.2 | Approximate Potency Compared to Fluasterone in Protecting Against DEX-induced Thymic and Splenic Involution ([1]; mice): about 1/12

C[C@@H]1C[C@H]2[C@@H]3CC=C4CCCC[C@]4(C)[C@H]3CC[C@]2(C)C1=O [16α-methyl-5-androsten-17-one]
Body Weight [1, 4]: 25.3 ± 0.8 | Spleen wt [1, 4]: 37.8 ± 6.1 | Spleen wt/BW [1, 4]: 1.5 ± 0.3 | Thymus wt [1, 4]: 28.0 ± 1.7 | Thymus wt/BW [1, 4]: 1.1 ± 0.1 | Approximate Potency Compared to Fluasterone in Protecting Against DEX-induced Thymic and Splenic Involution ([1]; mice): about ⅙ or less

C[C@@H]1C[C@H]2[C@@H]3CCC4=CC(=O)C=C[C@]4(C)[C@@]3(F)[C@@H](O)C[C@]2(C)[C@@]1(O)C(=O)CO [DEXAMETHASONE, dexamethasone, reference compound]
Thymus wt ([1]; Table 12, dexamethasone 1.6 mg s.c. once after vehicle s.c. 3 days, 24 h after dexamethasone): 33.2 ± 1.3

C[C@]12CCCCC1=CC[C@@H]1[C@@H]2CC[C@]2(C)C(=O)[C@H](F)C[C@@H]12 [^14C-Fluasterone]
metabolism after oral administration [2]: extensive first-pass hepatic and/or gastrointestinal metabolism

C[C@]12CCCC[C@@H]1CC[C@@H]1[C@@H]2CC[C@]2(C)C(=O)[C@H](F)C[C@@H]12 [compound 8356, 16α-fluoro-5α-androstan-17-one]
G6PDH inhibition compared with fluasterone [3]: more potent G6PDH inhibitor than fluasterone | Body Weight [1, 8]: 25.2 ± 2.9 | Spleen wt [1, 8]: 54.0 ± 4.5 | Spleen wt/BW [1, 8]: 2.0 ± 0.3 | Thymus wt [1, 8]: 40.8 ± 5.8 | Thymus wt/BW [1, 8]: 1.6 ± 0.1 | Body Weight [1, 10]: 25.2 ± 1.4 | Spleen wt [1, 10]: 51.2 ± 3.0 | Spleen wt/BW [1, 10]: 2.0 ± 0.2 | Thymus wt [1, 10]: 54.4 ± 4.5 | Thymus wt/BW [1, 10]: 2.2 ± 0.2 | Approximate Potency Compared to Fluasterone in Protecting Against DEX-induced Thymic and Splenic Involution ([1]; mice): about ⅛
